Data: patent publication US20230002359A1, “PESTICIDALLY ACTIVE FUSED BICYCLIC HETEROAROMATIC COMPOUNDS” (priority 2019, published 2023)

Legend:
Assay type in all cases: in vivo
[1] = test system: Spodoptera littoralis (Egyptian Cotton Leaf Worm); assay: Example B7: Spodoptera littoralis (Egyptian cotton leaf worm), cotton leaf discs sprayed, L1 larvae; details: foliar, 72 h, application rate of 200 ppm, 3 days after infestation, L1 larvae, read-out: control in at least one of the three categories (mortality, anti-feedant effect, or growth inhibition)
Procedure, shortened: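 Leaf discs on agar; spray, aqueous dilution of 10′000 ppm DMSO stock; dry; 5 L1 larvae/disc. Read at 3 d post-infestation: mortality, antifeedant, growth inhibition vs untreated. Control = ≥1 category above untreated.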

[2] = test system: Diabrotica Balteata (Corn Root Worm); assay: Example B1: Diabrotica balteata (corn root worm), maize sprouts sprayed, L2 larvae; details: 96 h, application rate of 200 ppm, 4 days after infestation, L2 larvae, read-out: control in at least one of the two categories (mortality or growth inhibition)
Procedure, shortened: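 Maize sprouts on agar were sprayed with aqueous test solutions made from 10′000 ppm DMSO stocks, dried, then infested with 6 to 10 L2 larvae per well. Mortality and growth inhibition were scored against untreated samples 4 days after infestation.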

[3] = test system: Myzus persicae (Green Peach Aphid); assay: Example B6: Myzus persicae (green peach aphid) intrinsic activity, sucrose solution; details: 120 h, test rate of 12 ppm, 5 days after infestation, intrinsic activity, read-out: mortality
Description: Test compounds prepared from 10′000 ppm DMSO stock solutions were applied by pipette into 24-well microtiter plates and mixed with sucrose solution. The plates were closed with a stretched Parafilm. A plastic stencil with 24 holes was placed onto the plate and infested pea seedlings were placed directly on the Parafilm. The infested plate was closed with a gel blotting paper and another plastic stencil and then turned upside down. The samples were assessed for mortality 5 days after infestation.

[4] = test system: Plutella xylostella (Diamond Back Moth); assay: Example B4: Plutella xylostella (diamond back moth), artificial diet, eggs, 24-well; details: 192 h, application rate of 200 ppm, 8 days after infestation, eggs, read-out: control in at least one of the two categories (mortality or growth inhibition)
Description: 24-well microtiter plates with artificial diet were treated with aqueous test solutions prepared from 10′000 ppm DMSO stock solutions by pipetting. After drying, Plutella eggs were pipetted through a plastic stencil onto a gel blotting paper and the plate was closed with it. The samples were assessed for mortality and growth inhibition in comparison to untreated samples 8 days after infestation.

[5] = test system: Chilo suppressalis (Striped Rice Stemborer); assay: Example B3: Chilo suppressalis (striped rice stemborer), artificial diet, L2 larvae; details: 144 h, application rate of 200 ppm, 6 days after infestation, L2 larvae, read-out: control in at least one of the three categories (mortality, anti-feedant effect, or growth inhibition)
Procedure, shortened: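 Scoring covers mortality, anti-feedant effect and growth inhibition at 6 days post-infestation, relative to untreated diet, with activity defined as at least one category above untreated. Test solutions were aqueous, made from 10'000 ppm DMSO stocks, and applied to artificial diet before drying and infestation with L2 larvae.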

CC(Nc1ncnc2c(OC(F)(F)F)cc(Br)cc12)c1nccnc1-c1ncccn1 (stereo not drawn) [P.11, 6-bromo-N-[1-(3-pyrimidin-2-ylpyrazin-2-yl)ethyl]-8-(trifluoromethoxy)quina-zolin-4-amine]
≥ 80%: percent control (mortality, anti-feedant effect or growth inhibition) at 200 ppm [1] | percent control (mortality or growth inhibition) at 200 ppm [2] | mortality at 12 ppm [3] | percent control (mortality or growth inhibition) at 200 ppm [4] | percent control (mortality, anti-feedant effect or growth inhibition) at 200 ppm [5]

CC(Nc1ncnc2c(Br)cc(OC(F)(F)F)cc12)c1nccnc1-c1ncccn1 (stereo not drawn) [P.12, 8-bromo-N-[1-(3-pyrimidin-2-ylpyrazin-2-yl)ethyl]-6-(trifluoromethoxy)quina-zolin-4-amine]
≥ 80%: percent control (mortality, anti-feedant effect or growth inhibition) at 200 ppm [1] | percent control (mortality or growth inhibition) at 200 ppm [2] | mortality at 12 ppm [3] | percent control (mortality or growth inhibition) at 200 ppm [4] | percent control (mortality, anti-feedant effect or growth inhibition) at 200 ppm [5]

C[C@H](Nc1ncnc2c(Cl)cc(C(F)(F)F)cc12)c1ncnn1-c1ncccn1 [P.18, 8-chloro-N-[(1S)-1-(2-pyrimidin-2-yl-1,2,4-triazol-3-yl)ethyl]-6-(trifluoromethyl)quinazolin-4-amine]
≥ 80%: percent control (mortality, anti-feedant effect or growth inhibition) at 200 ppm [1] | percent control (mortality or growth inhibition) at 200 ppm [2] | mortality at 12 ppm [3] | percent control (mortality or growth inhibition) at 200 ppm [4] | percent control (mortality, anti-feedant effect or growth inhibition) at 200 ppm [5]

C[C@H](Nc1ncnc2c(C(F)(F)F)cc(Cl)cc12)c1ncnn1-c1ccc(C#N)cn1 [P.22, 6-[5-[(1S)-1-[[6-chloro-8-(trifluoromethyl)quinazolin-4-yl]amino]ethyl]-1,2,4-triazol-1-yl]pyridine-3-carbonitrile]
≥ 80%: percent control (mortality, anti-feedant effect or growth inhibition) at 200 ppm [1] | percent control (mortality or growth inhibition) at 200 ppm [2] | mortality at 12 ppm [3] | percent control (mortality or growth inhibition) at 200 ppm [4] | percent control (mortality, anti-feedant effect or growth inhibition) at 200 ppm [5]

CC(Nc1ncnc2c(Br)cc(Br)cc12)c1ncnn1-c1ncccn1 (stereo not drawn) [P.29, 6,8-dibromo-N-[1-(2-pyrimidin-2-yl-1,2,4-triazol-3-yl)ethyl]quinazolin-4-amine]
≥ 80%: percent control (mortality, anti-feedant effect or growth inhibition) at 200 ppm [1] | percent control (mortality or growth inhibition) at 200 ppm [2] | mortality at 12 ppm [3] | percent control (mortality or growth inhibition) at 200 ppm [4] | percent control (mortality, anti-feedant effect or growth inhibition) at 200 ppm [5]

CC(Nc1ncnc2c(OC(F)F)cc(Br)cc12)c1nccnc1-c1ncccn1 (stereo not drawn) [P.32, 6-bromo-8-(difluoromethoxy)-N-[1-(3-pyrimidin-2-ylpyrazin-2-yl)ethyl]quinazolin-4-amine]
≥ 80%: percent control (mortality, anti-feedant effect or growth inhibition) at 200 ppm [1] | percent control (mortality or growth inhibition) at 200 ppm [2] | mortality at 12 ppm [3] | percent control (mortality or growth inhibition) at 200 ppm [4] | percent control (mortality, anti-feedant effect or growth inhibition) at 200 ppm [5]

CC(Nc1ncnc2c(C(F)(F)F)cc(Br)cc12)c1ncnn1-c1ncccn1 (stereo not drawn) [P.44, 6-bromo-N-[1-(2-pyrimidin-2-yl-1,2,4-triazol-3-yl)ethyl]-8-(trifluoromethyl)quinazolin-4-amine]
≥ 80%: percent control (mortality, anti-feedant effect or growth inhibition) at 200 ppm [1] | percent control (mortality or growth inhibition) at 200 ppm [2] | mortality at 12 ppm [3] | percent control (mortality or growth inhibition) at 200 ppm [4] | percent control (mortality, anti-feedant effect or growth inhibition) at 200 ppm [5]

C[C@@H](c1ncnn1-c1ncccn1)N(C)c1ccnc2c(C(F)(F)F)cc(C(F)(F)F)cc12 [P.88, N-methyl-N-[(1S)-1-(2-pyrimidin-2-yl-1,2,4-triazol-3-yl)ethyl]-6,8-bis(trifluoromethyl)quino-lin-4-amine]
≥ 80%: percent control (mortality or growth inhibition) at 200 ppm [2] | mortality at 12 ppm [3] | percent control (mortality or growth inhibition) at 200 ppm [4] | percent control (mortality, anti-feedant effect or growth inhibition) at 200 ppm [5]

C[C@@H](c1ncnn1-c1ncccn1)N(C)c1ncnc2c(Cl)cc(OC(F)F)cc12 [P.91, 8-chloro-6-(difluoromethoxy)-N-methyl-N-[(1S)-1-(2-pyrimidin-2-yl-1,2,4-triazol-3-yl)ethyl]quinazolin-4-amine]
≥ 80%: percent control (mortality or growth inhibition) at 200 ppm [2] | mortality at 12 ppm [3] | percent control (mortality or growth inhibition) at 200 ppm [4] | percent control (mortality, anti-feedant effect or growth inhibition) at 200 ppm [5]

CC(c1nccnc1-c1ncccn1)N(C)c1ncnc2c(C(F)(F)F)cc(Br)cc12 (stereo not drawn) [P.98, 6-bromo-N-methyl-N-[1-(3-pyrimidin-2-ylpyrazin-2-yl)ethyl]-8-(trifluoromethyl)quinazolin-4-amine]
≥ 80%: percent control (mortality, anti-feedant effect or growth inhibition) at 200 ppm [1] | percent control (mortality or growth inhibition) at 200 ppm [2] | mortality at 12 ppm [3] | percent control (mortality or growth inhibition) at 200 ppm [4] | percent control (mortality, anti-feedant effect or growth inhibition) at 200 ppm [5]

CC(c1nccnc1-c1ncccn1)N(C)c1ncnc2c(C(F)(F)F)cc(Cl)cc12 (stereo not drawn) [P.132, 6-chloro-N-methyl-N-[1-(3-pyrimidin-2-ylpyrazin-2-yl)ethyl]-8-(trifluoromethyl)quinazolin-4-amine]
≥ 80%: percent control (mortality, anti-feedant effect or growth inhibition) at 200 ppm [1] | percent control (mortality or growth inhibition) at 200 ppm [2] | mortality at 12 ppm [3] | percent control (mortality or growth inhibition) at 200 ppm [4] | percent control (mortality, anti-feedant effect or growth inhibition) at 200 ppm [5]

CC(Nc1ncnc2c(C(F)(F)F)cc(Br)cc12)c1nccnc1-c1ncccn1 (stereo not drawn) [P.133, 6-bromo-N-[1-(3-pyrimidin-2-ylpyrazin-2-yl)ethyl]-8-(trifluoromethyl)quinazolin-4-amine]
≥ 80%: percent control (mortality, anti-feedant effect or growth inhibition) at 200 ppm [1] | percent control (mortality or growth inhibition) at 200 ppm [2] | mortality at 12 ppm [3] | percent control (mortality or growth inhibition) at 200 ppm [4] | percent control (mortality, anti-feedant effect or growth inhibition) at 200 ppm [5]

C[C@H](Nc1ncnc2c(C(F)(F)F)cc(I)cc12)c1nccnc1-c1ccc(C#N)cn1 [P.162, 6-[3-[(1S)-1-[[6-iodo-8-(trifluoromethyl)quinazolin-4-yl]amino]ethyl]pyrazin-2-yl]pyridine-3-carbonitrile]
≥ 80%: percent control (mortality, anti-feedant effect or growth inhibition) at 200 ppm [1] | percent control (mortality or growth inhibition) at 200 ppm [2] | mortality at 12 ppm [3] | percent control (mortality or growth inhibition) at 200 ppm [4] | percent control (mortality, anti-feedant effect or growth inhibition) at 200 ppm [5]

CC(Nc1ncnc2c(Br)cc(Cl)cc12)c1ncnn1-c1ncccn1 (stereo not drawn) [P.171, 8-bromo-6-chloro-N-[1-(2-pyrimidin-2-yl-1,2,4-triazol-3-yl)ethyl]quinazolin-4-amine]
≥ 80%: percent control (mortality, anti-feedant effect or growth inhibition) at 200 ppm [1] | percent control (mortality or growth inhibition) at 200 ppm [2] | mortality at 12 ppm [3] | percent control (mortality or growth inhibition) at 200 ppm [4] | percent control (mortality, anti-feedant effect or growth inhibition) at 200 ppm [5]

C[C@@H](c1ncnn1-c1ccc(C#N)cn1)N(C)c1ncnc2c(C(F)(F)F)cc(C3CC3)cc12 [P.177, 6-[5-[(1S)-1-[[6-cyclopropyl-8-(trifluoromethyl)quinazolin-4-yl]-methyl-amino]ethyl]-1,2,4-triazol-1-yl]pyridine-3-carbonitrile]
≥ 80%: percent control (mortality, anti-feedant effect or growth inhibition) at 200 ppm [1] | percent control (mortality or growth inhibition) at 200 ppm [2] | mortality at 12 ppm [3] | percent control (mortality or growth inhibition) at 200 ppm [4] | percent control (mortality, anti-feedant effect or growth inhibition) at 200 ppm [5]

CC(c1nccnc1-c1ncccn1)N(C)c1ncnc2c(Br)cc(Cl)cc12 (stereo not drawn) [P.182, 8-bromo-6-chloro-N-methyl-N-[1-(3-pyrimidin-2-ylpyrazin-2-yl)ethyl]quinazolin-4-amine]
≥ 80%: percent control (mortality, anti-feedant effect or growth inhibition) at 200 ppm [1] | percent control (mortality or growth inhibition) at 200 ppm [2] | mortality at 12 ppm [3] | percent control (mortality or growth inhibition) at 200 ppm [4]

CC(Nc1ncnc2c(Br)cc(Cl)cc12)c1nccnc1-c1ncccn1 (stereo not drawn) [P.183, 8-bromo-6-chloro-N-[1-(3-pyrimidin-2-ylpyrazin-2-yl)ethyl]quinazolin-4-amine]
≥ 80%: percent control (mortality, anti-feedant effect or growth inhibition) at 200 ppm [1] | percent control (mortality or growth inhibition) at 200 ppm [2] | mortality at 12 ppm [3] | percent control (mortality or growth inhibition) at 200 ppm [4] | percent control (mortality, anti-feedant effect or growth inhibition) at 200 ppm [5]

CC(c1ncnn1-c1ccc(OC(F)F)cn1)N(C)c1ncnc2c(C(F)(F)F)cc(Br)cc12 (stereo not drawn) [P.194, 6-bromo-N-[1-[2-[5-(difluoromethoxy)-2-pyridyl]-1,2,4-triazol-3-yl]ethyl]-N-methyl-8-(trifluoromethyl)quinazolin-4-amine]
≥ 80%: percent control (mortality, anti-feedant effect or growth inhibition) at 200 ppm [1] | percent control (mortality or growth inhibition) at 200 ppm [2] | mortality at 12 ppm [3] | percent control (mortality or growth inhibition) at 200 ppm [4] | percent control (mortality, anti-feedant effect or growth inhibition) at 200 ppm [5]
